Measured values: PubChem BioAssay (NCI)
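Dose response: 5 concentrations. Exposure: 48 h. Format: 96-well plates. Endpoint: linear interpolation; highest concentration if not reached. Abbreviation: GI50, concentration required for 50% inhibition of growth. TGI: total growth inhibition.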

Columns and labels:
Assay in all cases: NCI-60 cell line screen, 48 h
[1] = tested on: UACC-257 melanoma
[2] = tested on: TK-10 renal
[3] = tested on: SF-268 CNS
[4] = tested on: SN12C renal
[5] = tested on: A549 NSCLC
[6] = tested on: DU-145 prostate
[7] = tested on: NCI-H23 lung
[8] = tested on: HCT-116 colon
[9] = tested on: RPMI-8226 leukemia
[10] = tested on: CAKI-1 renal
[11] = tested on: SK-MEL-2 melanoma
[12] = tested on: SR leukemia
[13] = tested on: T-47D breast
[14] = tested on: HT29 colon
[15] = tested on: A498 renal
[16] = tested on: OVCAR-3 ovarian
[17] = tested on: OVCAR-5 ovarian
[18] = tested on: ACHN renal
[19] = tested on: MOLT-4 leukemia
[20] = tested on: SF-539 CNS
[21] = tested on: IGROV1 ovarian
[22] = tested on: MCF7 breast
[23] = tested on: BT-549 breast
[24] = tested on: PC-3 prostate
[25] = tested on: MDA-MB-435
[26] = tested on: OVCAR-8 ovarian
[27] = tested on: SK-OV-3 ovarian
[28] = tested on: SK-MEL-28 melanoma
[29] = tested on: RXF 393 renal
[30] = tested on: KM12 colon
[31] = tested on: NCI-H226 lung
[32] = tested on: 786-0 renal
[33] = tested on: COLO 205 colon
[34] = tested on: HOP-92 NSCLC
[35] = tested on: SNB-19 CNS
[36] = tested on: UACC-62 melanoma
[37] = tested on: HOP-62 NSCLC
[38] = tested on: MDA-MB-231 breast
[39] = tested on: OVCAR-4 ovarian
[40] = tested on: EKVX NSCLC
[41] = tested on: NCI-H460 lung
[42] = tested on: HCC-2998 colon
[43] = tested on: K-562 leukemia
[44] = tested on: M14 melanoma
[45] = tested on: HCT-15 colon
[46] = tested on: LOX IMVI melanoma
[47] = tested on: NCI/ADR-RES ovarian
[48] = tested on: SF-295 CNS
[49] = tested on: HL-60(TB) leukemia
[50] = tested on: HS 578T breast
[51] = tested on: NCI-H522 lung
[52] = tested on: SW-620 colon
[53] = tested on: SNB-75 CNS
[54] = tested on: UO-31 renal
[55] = tested on: CCRF-CEM leukemia
[56] = tested on: U251 CNS
[57] = tested on: SK-MEL-5 melanoma

Clc1ccc2c(N3CCC(CCC4CCN(c5ncnc6cc(Cl)ccc56)CC4)CC3)ncnc2c1
GI50 [1]: 61 µM

C=C1CC[C@@H]2[C@](C)(COC(C)=O)[C@H](OC(C)=O)CC[C@@]2(C)[C@@H]1CC(Nc1ccc(S(=O)(=O)Nc2nccc(C)n2)cc1)C1=CCOC1=O (stereo partly specified)
GI50 [2]: 4.94 µM
TGI [2]: 15.8 µM
GI50 [3]: 6.19 µM
TGI [3]: 20.9 µM
GI50 [4]: 2.64 µM
TGI [4]: 6.17 µM
GI50 [5]: 8.19 µM
TGI [5]: 21.9 µM
GI50 [6]: 3.36 µM
TGI [6]: 11.8 µM
GI50 [7]: 3.78 µM
TGI [7]: 16 µM
GI50 [8]: 1.6 µM
TGI [8]: 3.56 µM
GI50 [9]: 1.95 µM
TGI [9]: 6.84 µM
GI50 [10]: 3.56 µM
TGI [10]: 12.5 µM
GI50 [11]: 6.01 µM
TGI [11]: 20 µM
GI50 [12]: 0.753 µM
TGI [12]: > 100 µM
GI50 [13]: 2.77 µM
TGI [13]: 8.33 µM
GI50 [14]: 2.02 µM
TGI [14]: 4.24 µM
GI50 [15]: 14.8 µM
TGI [15]: 28.4 µM
GI50 [16]: 1.76 µM
TGI [16]: 3.36 µM
GI50 [17]: 3.86 µM
TGI [17]: 12.8 µM
GI50 [18]: 3.64 µM
TGI [18]: 13 µM
GI50 [19]: 3.22 µM
TGI [19]: 17.9 µM
GI50 [20]: 2.07 µM
TGI [20]: 4.73 µM
GI50 [21]: 3.62 µM
TGI [21]: 13.6 µM
GI50 [22]: 2.27 µM
TGI [22]: 12.5 µM
GI50 [23]: 2.3 µM
TGI [23]: 5.61 µM
GI50 [24]: 4.46 µM
TGI [24]: 15.7 µM
GI50 [25]: 2.92 µM
TGI [25]: 10.4 µM
GI50 [26]: 2.61 µM
TGI [26]: 8.56 µM
GI50 [27]: 12.7 µM
TGI [27]: 25.3 µM
GI50 [28]: 2.83 µM
TGI [28]: 10.1 µM
GI50 [29]: 2.33 µM
TGI [29]: 4.18 µM
GI50 [1]: 4.8 µM
TGI [1]: 16.4 µM
GI50 [30]: 4.59 µM
TGI [30]: 16.4 µM
GI50 [31]: 2.33 µM
TGI [31]: 5.91 µM
GI50 [32]: 2.27 µM
TGI [32]: 5.06 µM
GI50 [33]: 2.09 µM
TGI [33]: 4.66 µM
GI50 [34]: 6.24 µM
TGI [34]: 18.9 µM
GI50 [35]: 6.3 µM
TGI [35]: 20.7 µM
GI50 [36]: 2.38 µM
TGI [36]: 7.13 µM
GI50 [37]: 10.3 µM
TGI [37]: 22.5 µM
GI50 [38]: 3.62 µM
TGI [38]: 10.2 µM
GI50 [39]: 4.37 µM
TGI [39]: 15.8 µM
GI50 [40]: 13.9 µM
TGI [40]: 27.1 µM
GI50 [41]: 4.88 µM
TGI [41]: 18.3 µM
GI50 [42]: 4.98 µM
TGI [42]: 17.9 µM
GI50 [43]: 2.97 µM
TGI [43]: 21.7 µM
GI50 [44]: 2.81 µM
TGI [44]: 10.8 µM
GI50 [45]: 1.79 µM
TGI [45]: 4.24 µM
GI50 [46]: 1.53 µM
TGI [46]: 3.24 µM
GI50 [47]: 2.94 µM
TGI [47]: 13.5 µM
GI50 [48]: 12.4 µM
TGI [48]: 25.6 µM
GI50 [49]: 2.1 µM
TGI [49]: 5.63 µM
GI50 [50]: 6.65 µM
TGI [50]: 43 µM
GI50 [51]: 1.26 µM
TGI [51]: 3.1 µM
GI50 [52]: 1.6 µM
TGI [52]: 3.68 µM
GI50 [53]: 2.69 µM
TGI [53]: 14.9 µM
GI50 [54]: 2.91 µM
TGI [54]: 10.6 µM
GI50 [55]: 0.073 µM
TGI [55]: 3.09 µM
GI50 [56]: 3.17 µM
TGI [56]: 10.7 µM
GI50 [57]: 3.79 µM
TGI [57]: 14 µM

CCOP(=O)(OCC)C(NC(c1ccccc1)c1ccccc1)c1cccc2ccccc12 (stereo unspecified)
GI50 [2]: 10.3 µM
TGI [2]: 29.4 µM
GI50 [3]: 5.75 µM
TGI [3]: 21.2 µM
GI50 [4]: 2.68 µM
TGI [4]: 8.65 µM
GI50 [5]: 4.28 µM
TGI [5]: > 100 µM
GI50 [6]: 20.4 µM
TGI [6]: 39 µM
GI50 [7]: 13.3 µM
TGI [7]: 29.5 µM
GI50 [9]: 2.38 µM
TGI [9]: 5.57 µM
GI50 [10]: 4.09 µM
TGI [10]: 14.5 µM
GI50 [11]: 27.7 µM
TGI [11]: > 100 µM
GI50 [12]: 4.91 µM
TGI [12]: > 100 µM
GI50 [16]: 4.22 µM
TGI [16]: 12.5 µM
GI50 [17]: 14.3 µM
TGI [17]: 34.4 µM
GI50 [18]: 4.1 µM
TGI [18]: 12.3 µM
GI50 [19]: 4.17 µM
TGI [19]: > 100 µM
GI50 [20]: 23 µM
TGI [20]: 41.4 µM
GI50 [21]: 23.6 µM
TGI [21]: > 100 µM
GI50 [22]: 4.04 µM
TGI [22]: 24.3 µM
GI50 [23]: 23.8 µM
TGI [23]: 53.5 µM
GI50 [24]: 3.37 µM
TGI [24]: 13.9 µM
GI50 [25]: 9.18 µM
TGI [25]: 28.3 µM
GI50 [26]: 6.14 µM
TGI [26]: > 100 µM
GI50 [1]: 3.22 µM
TGI [1]: 13.9 µM
GI50 [30]: 5.32 µM
TGI [30]: 23 µM
GI50 [31]: 4.63 µM
TGI [31]: 19 µM
GI50 [32]: 2.9 µM
TGI [32]: 9.64 µM
GI50 [34]: 11.7 µM
TGI [34]: 28.4 µM
GI50 [36]: 2.58 µM
TGI [36]: 9.1 µM
GI50 [38]: 1.56 µM
TGI [38]: 9.63 µM
GI50 [40]: 16.2 µM
TGI [40]: 35.5 µM
GI50 [41]: 5.05 µM
TGI [41]: 25.8 µM
GI50 [42]: 4.55 µM
TGI [42]: 17.2 µM
GI50 [43]: 3.99 µM
TGI [43]: 21 µM
GI50 [44]: 3.03 µM
TGI [44]: 7.71 µM
GI50 [45]: 1.51 µM
TGI [45]: 8.78 µM
GI50 [47]: 9.79 µM
TGI [47]: 22.6 µM
GI50 [48]: 6.76 µM
TGI [48]: 65.7 µM
GI50 [49]: 14.1 µM
TGI [49]: > 100 µM
GI50 [50]: 29.9 µM
TGI [50]: 67.3 µM
GI50 [51]: 7.96 µM
TGI [51]: > 100 µM
GI50 [52]: 22.2 µM
TGI [52]: 57.6 µM
GI50 [54]: 12.3 µM
TGI [54]: > 100 µM
GI50 [55]: 5.86 µM
TGI [55]: > 100 µM
GI50 [57]: 14.9 µM
TGI [57]: 32.2 µM
